In one data set the test system is BET protein. Description: Pharmacodynamic effect in RS4;11 tumor tissue in mice (BET protein degradation). Conditions: RS4;11 tumor-bearing mice, intravenous dosing at 10 mg/kg. In kind it is in vivo. From the text:
FIG. 1 is an illustration showing the pharmacodynamic effect of Cpd. No. 15 in RS4;11 tumor tissue in mice.
FIG. 2 is an illustration showing the pharmacodynamic effect of Cpd. No. 16 in RS4;11 tumor tissue in mice.
The pharmacodynamic effect of Cpd. No. 15 and Cpd.

The nature of data set [1]: Pharmacokinetics in RS4;11 tumor-bearing mice (plasma and tumor concentrations). In kind it is in vivo. As to conditions: for Cpd. No. 15 Concentration in plasma: IV 10 mg/kg Cpd. No. 15, RS4;11 tumor-bearing mice. From the text:
The pharmacokinetics of Cpd. No. 15 in RS4;11 tumor-bearing mice show it is converted to Cpd. No. 52 in plasma and tumor tissue. BLOQ=below limit of detection; nd=not determined

A further data set has as its system MDA-MB-231. Description: Cell growth inhibition, CellTiter-Glo Luminescent Cell Viability Assay, MDA-MB-231. In kind it is cell-based. As to conditions: MDA-MB-231 cells, 4 days. Here is the method:
(§1) Cell growth inhibitory activity of representative Compounds of the Disclosure was determined using the CellTiter-Glo® Luminescent Cell Viability Assay. Cells were seeded in 384-well white opaque cell culture plates at a density of 2,000 cells/well with serially diluted compounds and incubated at 37° C. in an atmosphere of 95% air and 5% CO2 for 4 days. Cell viability was determined using the CellTiter-Glo® Luminescent Cell Viability Assay Kit (Promega, Madison, Wis.) according to the manufacture's instruction. Briefly, a volume of CellTiter-Glo® Reagent equal to the volume of cell culture medium was added to each well, and then the plates were incubated at room temperature for 10-20 minutes. The luminescent signal was measured using a Tecan Infinite M1000 multimode microplate reader (Tecan, Morrisville, N.C.). The half maximal inhibitory concentration (IC50) in Table 3 was calculated using the GraphPad Prism 5 software (GraphPad Software, La Jolla, Calif.).
In general terms: Cellular ATP, detected with luciferase, serves as a proxy for viable cell number.

For another data set, the system named is MOLM13. Description: Cell growth inhibition, CellTiter-Glo Luminescent Cell Viability Assay, MOLM13. In kind it is cell-based. Conditions: MOLM13 cells, 4 days. The procedure: as §1

What is called IC50 is the concentration that inhibits the measured activity by half. A low value points to inhibition by little substance.

On to `Cc1nnc2n1-c1sc(C#Cc3cnn(CCCC(=O)OCCCOc4cccc5c4CN(C4CCC(=O)NC4=O)C5=O)c3)c(Cc3ccccc3)c1COC2` (centres unmarked) [Cpd. No. 15, 3-((2-(2,6-dioxopiperidin-3-yl)-1-oxoisoindolin-4-yl)oxy)propyl 4-(4-((3-benzyl-9-methyl-4H,6H-thieno[2,3-e][1,2,4]triazolo[3,4-c][1,4]oxazepin-2-yl)ethynyl)-1H-pyrazol-1-yl)butanoate], for which the “Pharmacodynamic effect: BET protein degradation in tumor tissue” value in the data set on BET protein is on record as “induce BET protein degradation in tumor tissue”. Besides, the “Cpd. No. 15 Concentration in tumor” value in data set [1] (IV 10 mg/kg Cpd. No. 15, 1 h, Mouse 1 L tumor) is “BLOQ”; in data set [1] (IV 10 mg/kg Cpd. No. 15, 1 h, Mouse 1 R tumor) it was “BLOQ”; in data set [1] (IV 10 mg/kg Cpd. No. 15, 1 h, Mouse 2 L tumor), “BLOQ”; in data set [1] (IV 10 mg/kg Cpd. No. 15, 1 h, Mouse 2 R tumor), “BLOQ”; in data set [1] (IV 10 mg/kg Cpd. No. 15, 3 h, Mouse 1 L tumor), “BLOQ”; in data set [1] (IV 10 mg/kg Cpd. No. 15, 3 h, Mouse 1 R tumor), “BLOQ”. Also, the “Cpd. No. 15 Concentration in tumor” value in data set [1] (IV 10 mg/kg Cpd. No. 15, 3 h, Mouse 2 L tumor) was “BLOQ”; in data set [1] (IV 10 mg/kg Cpd. No. 15, 3 h, Mouse 2 R tumor), “BLOQ”. Also, the “Cpd. No. 15 Concentration in plasma” value is “BLOQ” in data set [1] (1 h, mouse 1); “BLOQ” in data set [1] (1 h, mouse 2); “BLOQ” in data set [1] (3 h, mouse 1); “BLOQ” in data set [1] (3 h, mouse 2). For the same compound, in data set [1] (RS4;11 tumor-bearing mice, IV 10 mg/kg), the “Conversion (metabolism) in plasma and tumor tissue” value is “converted to Cpd. No. 52 in plasma and tumor tissue”.

Turning to `Cc1nnc2n1-c1sc(C#Cc3cnn(CCCC(=O)OCCC#Cc4cccc5c4CN(C4CCC(=O)NC4=O)C5=O)c3)c(Cc3ccccc3)c1COC2` (centres unmarked) [Cpd. No. 16, 4-(2-(2,6-dioxopiperidin-3-yl)-1-oxoisoindolin-4-yl)but-3-yn-1-yl 4-(4-((3-benzyl-9-methyl-4H,6H-thieno[2,3-e][1,2,4]triazolo[3,4-c][1,4]oxazepin-2-yl)ethynyl)-1H-pyrazol-1-yl)butanoate], the “Pharmacodynamic effect: BET protein degradation in tumor tissue” value in the data set on BET protein is listed as “induce BET protein degradation in tumor tissue”. In addition, the IC50 in the data set on MDA-MB-231 (Homo sapiens, MDA-MB-231, 96 h) was determined as 1.5 nM; in the data set on MDA-MB-231 it was 0.9 nM; in the data set with MOLM13 (Homo sapiens, MOLM-13, 96 h), 0.4 nM; in the data set with MOLM13, 0.2 nM.

Turning to `Cc1nnc2n1-c1sc(C#Cc3cnn(CCOC(=O)CCCCc4cccc5c4CN(C4CCC(=O)NC4=O)C5=O)c3)c(Cc3ccccc3)c1COC2` (centres unmarked) [compound 32, 2-(4-((3-benzyl-9-methyl-4H,6H-thieno[2,3-e][1,2,4]triazolo[3,4-c][1,4]oxazepin-2-yl)ethynyl)-1H-pyrazol-1-yl)ethyl 5-(2-(2,6-dioxopiperidin-3-yl)-1-oxoisoindolin-4-yl)pentanoate], the IC50 amounted to 25.8 nM in the data set on MDA-MB-231 (Homo sapiens, MDA-MB-231, 96 h) and 0.6 nM with MOLM13 (Homo sapiens, MOLM-13, 96 h).

For `Cc1nnc2n1-c1sc(C#Cc3cnn(CCOC(=O)CCC#Cc4cccc5c4CN(C4CCC(=O)NC4=O)C5=O)c3)c(Cc3ccccc3)c1COC2` (centres unmarked) [compound 33, 2-(4-((3-benzyl-9-methyl-4H,6H-thieno[2,3-e][1,2,4]triazolo[3,4-c][1,4]oxazepin-2-yl)ethynyl)-1H-pyrazol-1-yl)ethyl 5-(2-(2,6-dioxopiperidin-3-yl)-1-oxoisoindolin-4-yl)pent-4-ynoate], the IC50 in the data set with MDA-MB-231 turned out to be 35.6 nM; in the data set with MOLM13, 1.6 nM.

For the compound `Cc1nnc2n1-c1sc(C#Cc3cnn(CC(=O)OCCCCc4cccc5c4CN(C4CCC(=O)NC4=O)C5=O)c3)c(Cc3ccccc3)c1COC2` (centres unmarked) [compound 34, 4-(2-(2,6-dioxopiperidin-3-yl)-1-oxoisoindolin-4-yl)butyl 2-(4-((3-benzyl-9-methyl-4H,6H-thieno[2,3-e][1,2,4]triazolo[3,4-c][1,4]oxazepin-2-yl)ethynyl)-1H-pyrazol-1-yl)acetate], the IC50 in the data set on MDA-MB-231 (Homo sapiens, MDA-MB-231, 96 h) turned out to be 8.4 nM; with MOLM13 (Homo sapiens, MOLM-13, 96 h), 0.7 nM.

`Cc1nnc2n1-c1sc(C#Cc3cnn(CC(=O)OCCCc4cccc5c4CN(C4CCC(=O)NC4=O)C5=O)c3)c(Cc3ccccc3)c1COC2` (centres unmarked) [compound 38, 3-(2-(2,6-dioxopiperidin-3-yl)-1-oxoisoindolin-4-yl)propyl 2-(4-((3-benzyl-9-methyl-4H,6H-thieno[2,3-e][1,2,4]triazolo[3,4-c][1,4]oxazepin-2-yl)ethynyl)-1H-pyrazol-1-yl)acetate]: the IC50 in the data set with MDA-MB-231 (Homo sapiens, MDA-MB-231, 96 h) was over 100 nM; in the data set with MOLM13 (Homo sapiens, MOLM-13, 96 h), 22 nM.

Regarding `Cc1nnc2n1-c1sc(C#Cc3cnn(CCCC(=O)OCC#Cc4cccc5c4CN(C4CCC(=O)NC4=O)C5=O)c3)c(Cc3ccccc3)c1COC2` (centres unmarked) [compound 41, 3-(2-(2,6-dioxopiperidin-3-yl)-1-oxoisoindolin-4-yl)prop-2-yn-1-yl 4-(4-((3-benzyl-9-methyl-4H,6H-thieno[2,3-e][1,2,4]triazolo[3,4-c][1,4]oxazepin-2-yl)ethynyl)-1H-pyrazol-1-yl)butanoate], the IC50 with MDA-MB-231 (Homo sapiens, MDA-MB-231, 96 h) turned out to be 1.2 nM; in the data set on MOLM13 (Homo sapiens, MOLM-13, 96 h), 3.8 nM.

For the compound `Cc1nnc2n1-c1sc(C#Cc3ccc(CCCC(=O)OCCN4CCC(Nc5cccc6c5CN(C5CCC(=O)NC5=O)C6=O)CC4)nc3)c(Cc3ccccc3)c1COC2` (centres unmarked) [compound 42, 2-(4-((2-(2,6-dioxopiperidin-3-yl)-1-oxoisoindolin-4-yl)amino)piperidin-1-yl)ethyl 4-(5-((3-benzyl-9-methyl-4H,6H-thieno[2,3-e][1,2,4]triazolo[3,4-c][1,4]oxazepin-2-yl)ethynyl)pyridin-2-yl)butanoate], the half-maximal inhibitory concentration (IC50) with MDA-MB-231 (Homo sapiens, MDA-MB-231, 96 h) came out at 4.9 nM; in the data set on MOLM13 (Homo sapiens, MOLM-13, 96 h) it was 5.5 nM.

`Cc1nnc2n1-c1sc(C#Cc3ccc(CCCC(=O)OCCN4CCN(c5cccc6c5C(=O)N(C5CCC(=O)NC5=O)C6=O)CC4)nc3)c(Cc3ccccc3)c1COC2` (centres unmarked) [compound 43, 2-(4-(2-(2,6-dioxopiperidin-3-yl)-1,3-dioxoisoindolin-4-yl)piperazin-1-yl)ethyl 4-(5-((3-benzyl-9-methyl-4H,6H-thieno[2,3-e][1,2,4]triazolo[3,4-c][1,4]oxazepin-2-yl)ethynyl)pyridin-2-yl)butanoate]: the IC50 in the data set with MDA-MB-231 (Homo sapiens, MDA-MB-231, 96 h) was over 100 nM; with MOLM13 (Homo sapiens, MOLM-13, 96 h), over 100 nM.

For the compound `Cc1nnc2n1-c1sc(C#Cc3cnn(CCCC(=O)OCCN4CCN(c5cccc6c5C(=O)N(C5CCC(=O)NC5=O)C6=O)CC4)c3)c(Cc3ccccc3)c1COC2` (centres unmarked) [compound 44, 2-(4-(2-(2,6-dioxopiperidin-3-yl)-1,3-dioxoisoindolin-4-yl)piperazin-1-yl)ethyl 4-(4-((3-benzyl-9-methyl-4H,6H-thieno[2,3-e][1,2,4]triazolo[3,4-c][1,4]oxazepin-2-yl)ethynyl)-1H-pyrazol-1-yl)butanoate], the IC50 in the data set with MDA-MB-231 (Homo sapiens, MDA-MB-231, 96 h) was over 100 nM; with MOLM13 (Homo sapiens, MOLM-13, 96 h) it was 4.3 nM.
